This is an account of results in patent publication US20100093776A1, “Organic Compounds and Their Uses” (Novartis AG, priority 2006, published 2010).

As a reminder, the IC50 is the point on the concentration scale where inhibition reaches its midpoint.

Common to all, as to type: biochemical
The target of test [1] is T1, CDK2/cyclinA (Homo sapiens, UniProt P24941).
T1 construct: purchased Millipore
As to the kind of experiment: CDK2/cyclinA IMAP fluorescence polarization kinase assay. Particulars: 4.68 μM ATP, two hours at room temperature. As to the method: (§1) Kinase assays were performed on recombinant purified enzymes using the non-radioactive IMAP fluorescence polarization assay format.
(§2) Compound stocks were prepared and diluted in DMSO and were added to kinase reactions at a 1/100 dilution for a final concentration of 1% DMSO. The components were added together to final concentrations listed in the tables below and incubated for two hours at room temperature.
(§3) The reactions were stopped by addition of stop solution.
CDK2: final stop concentration is 1× Developer buffer (100% A), IMAP beads 1/400
(§4) The samples were allowed to incubate for one more hour at room temperature and then the fluorescence polarization was measured. The plate normalized millipolarization (mP) values were plotted against the log of compound concentration for each compound and IC50 values were calculated using the spotfire IC50 calculator and confirmed by visual analysis.
On the technique in general: In fluorescence polarisation assays a small probe gives low polarisation when free and higher when bound to something large.

Test [2] deals with T2, CDK9/cyclinT1 (Homo sapiens, UniProt P50750).
T2 construct: purchased Millipore
As to the kind of experiment: CDK9/cyclinT1 IMAP fluorescence polarization kinase assay. The conditions noted are these: 6 μM ATP, two hours at room temperature. As to the method: as §1, §2, §3
(§5) CDK9/CDK1/CDK7: final stop concentration is 1× Developer buffer (85% A/15% B), IMAP beads 1/400
as §4

Test [3] concerns the target T3, CDK1/cyclinB (Homo sapiens, UniProt P06493).
T3 construct: purchased Millipore
As to the kind of experiment: CDK1/cyclinB IMAP fluorescence polarization kinase assay. Particulars: 52 μM ATP, two hours at room temperature. As to the method: as §1, §2, §3, §5, §4

Some results are limits rather than exact numbers.

T2 sequence (P50750 whole entry): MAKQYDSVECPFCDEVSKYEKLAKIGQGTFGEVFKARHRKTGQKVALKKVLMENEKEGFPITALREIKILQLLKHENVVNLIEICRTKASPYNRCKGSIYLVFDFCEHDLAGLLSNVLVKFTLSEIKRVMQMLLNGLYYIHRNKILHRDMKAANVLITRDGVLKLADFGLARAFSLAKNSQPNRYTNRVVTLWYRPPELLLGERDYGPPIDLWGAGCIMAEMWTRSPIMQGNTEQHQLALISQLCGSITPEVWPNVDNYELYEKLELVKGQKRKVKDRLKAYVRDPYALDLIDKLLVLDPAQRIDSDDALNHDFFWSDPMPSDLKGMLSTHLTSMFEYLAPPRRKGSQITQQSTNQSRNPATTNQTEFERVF
T2 sequence (O60563 whole entry partner): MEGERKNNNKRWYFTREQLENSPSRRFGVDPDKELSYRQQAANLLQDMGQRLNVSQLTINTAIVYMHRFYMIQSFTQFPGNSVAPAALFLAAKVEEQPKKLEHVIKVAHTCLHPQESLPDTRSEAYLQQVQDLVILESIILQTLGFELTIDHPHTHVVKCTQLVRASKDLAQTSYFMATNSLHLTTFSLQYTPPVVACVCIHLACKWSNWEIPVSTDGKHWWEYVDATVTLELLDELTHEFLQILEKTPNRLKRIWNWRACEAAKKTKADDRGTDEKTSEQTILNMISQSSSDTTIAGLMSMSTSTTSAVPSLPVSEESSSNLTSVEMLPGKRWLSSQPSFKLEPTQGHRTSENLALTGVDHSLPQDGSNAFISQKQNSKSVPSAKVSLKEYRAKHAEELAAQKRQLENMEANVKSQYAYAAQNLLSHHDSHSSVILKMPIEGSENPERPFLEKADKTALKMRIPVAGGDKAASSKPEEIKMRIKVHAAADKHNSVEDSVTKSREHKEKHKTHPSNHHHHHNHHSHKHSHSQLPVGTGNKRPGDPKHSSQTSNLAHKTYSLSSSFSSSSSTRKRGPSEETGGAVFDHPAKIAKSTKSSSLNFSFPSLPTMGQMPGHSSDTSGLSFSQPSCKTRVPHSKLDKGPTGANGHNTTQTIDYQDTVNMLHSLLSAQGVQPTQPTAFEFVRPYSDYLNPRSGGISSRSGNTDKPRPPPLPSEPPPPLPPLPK
T3 sequence (P06493 whole entry): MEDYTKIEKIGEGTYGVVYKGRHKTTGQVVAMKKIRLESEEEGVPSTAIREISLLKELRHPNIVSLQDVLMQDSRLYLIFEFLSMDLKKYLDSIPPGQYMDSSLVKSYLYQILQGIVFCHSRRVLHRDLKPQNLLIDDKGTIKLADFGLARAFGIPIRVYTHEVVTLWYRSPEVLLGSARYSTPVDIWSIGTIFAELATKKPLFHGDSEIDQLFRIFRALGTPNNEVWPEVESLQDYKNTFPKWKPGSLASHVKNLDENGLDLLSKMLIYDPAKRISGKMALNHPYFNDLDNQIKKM
T3 sequence (P14635 whole entry partner): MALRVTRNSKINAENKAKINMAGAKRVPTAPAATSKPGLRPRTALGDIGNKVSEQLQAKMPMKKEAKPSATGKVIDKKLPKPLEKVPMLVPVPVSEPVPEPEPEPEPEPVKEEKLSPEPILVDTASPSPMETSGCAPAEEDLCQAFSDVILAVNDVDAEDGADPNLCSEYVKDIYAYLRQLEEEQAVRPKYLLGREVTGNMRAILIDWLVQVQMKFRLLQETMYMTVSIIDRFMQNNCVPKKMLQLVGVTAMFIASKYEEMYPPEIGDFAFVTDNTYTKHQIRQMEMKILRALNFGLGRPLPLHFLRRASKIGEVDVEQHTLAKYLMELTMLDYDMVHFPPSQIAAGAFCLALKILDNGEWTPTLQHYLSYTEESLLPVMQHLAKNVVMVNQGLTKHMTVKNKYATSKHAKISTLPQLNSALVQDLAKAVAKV

In the case of `OCCCn1ccc2c(-c3ccnc(Nc4cccc(Cl)c4)n3)cccc21` [Compound 8, 3-{4-[2-(3-Chloro-phenylamino)-pyrimidin-4-yl]-indol-1-yl}-propan-1-ol], the IC50 was below 5 µM in test [1], below 5 µM in test [2] and 5 to 15 µM in test [3].

Turning to `NC1CCN(C(=O)Cn2ccc3c(-c4ccnc(Nc5cccc(Cl)c5)n4)cccc32)CC1` [Compound 21, 1-(4-Amino-piperidin-1-yl)-2-{4-[2-(3-chloro-phenylamino)-pyrimidin-4-yl]-indol-1-yl}-ethanone], the IC50 in test [1] is 15 to 50 µM; in test [2] it was below 5 µM; in test [3] it was above 50 µM.

`CN(C)CCn1ccc2c(-c3ccnc(Nc4cccc(Cl)c4)n3)cccc21` [Compound 10, (3-Chloro-phenyl)-{4-[1-(2-dimethylamino-ethyl)-1H-indol-4-yl]-pyrimidin-2-yl}-amine]: the 50% inhibitory concentration (IC50) in test [1], in test [2] and in test [3] was below 5 µM each time.

On to `O=C(Cn1ccc2c(-c3ccnc(Nc4cccc(Cl)c4)n3)cccc21)NCCO` [Compound 18, 2-{4-[2-(3-Chloro-phenylamino)-pyrimidin-4-yl]-indol-1-yl}-N-(2-hydroxy-ethyl)-acetamide], for which the IC50 is below 5 µM in test [1], below 5 µM in test [2] and 5 to 15 µM in test [3].

Consider `CC(C)CNC(=O)Cn1ccc2c(-c3ccnc(Nc4cccc(Cl)c4)n3)cccc21` [Compound 16, 2-{4-[2-(3-Chloro-phenylamino)-pyrimidin-4-yl]-indol-1-yl}-N-isobutyl-acetamide], for which the IC50 is above 50 µM in test [1], below 5 µM in test [2] and above 50 µM in test [3].

Take `O=C(Cn1ccc2c(-c3ccnc(Nc4cccc(Cl)c4)n3)cccc21)N1CCNCC1` [Compound 20, 2-{4-[2-(3-Chloro-phenylamino)-pyrimidin-4-yl]-indol-1-yl}-1-piperazin-1-yl-ethanone]: the IC50 was above 50 µM in test [1], below 5 µM in test [2] and above 50 µM in test [3].

On to `O=C(O)Cn1ccc2c(-c3ccnc(Nc4cccc(Cl)c4)n3)cccc21` [Compound 24, {4-[2-(3-Chloro-phenylamino)-pyrimidin-4-yl]-indol-1-yl}-acetic acid], for which the IC50 in test [1] was 5 to 15 µM; in test [2] it was below 5 µM; in test [3] it was 15 to 50 µM.

Consider `CCOC(=O)Cn1ccc2c(-c3ccnc(Nc4cccc(Cl)c4)n3)cccc21` [Compound 5, Ethyl {4-[2-(3-chloro-phenylamino)-pyrimidin-4-yl]-indol-1-yl}acetate], for which the IC50 is above 50 µM in test [1], below 5 µM in test [2] and above 50 µM in test [3].

In the case of `Cc1cnc(Nc2cccc(Cl)c2)nc1-c1cccc2[nH]ccc12` [Compound 30, (3-Chloro-phenyl)-[4-(1H-indol-4-yl)-5-methyl-pyrimidin-2-yl]-amine], the IC50 in test [1] was 15 to 50 µM; in test [2], below 5 µM; in test [3], 15 to 50 µM.

On to `O=C(Cn1ccc2c(-c3ccnc(Nc4cccc(Cl)c4)n3)cccc21)NCCN1CCCC1` [Compound 23, 2-{4-[2-(3-Chloro-phenylamino)-pyrimidin-4-yl]-indol-1-yl}-N-(2-pyrrolidin-1-yl-ethyl)-acetamide], for which the IC50 is above 50 µM in test [1], below 5 µM in test [2] and 15 to 50 µM in test [3].

With `OCCn1ccc2c(-c3ccnc(Nc4cccc(Cl)c4)n3)cccc21` [Compound 7, 2-{4-[2-(3-chloroaniline)-pyrimidin-4-yl]-indol-1-yl}-ethanol], the IC50 in test [1] was below 5 µM; in test [2], below 5 µM; in test [3] it was 5 to 15 µM.

Consider `O=C(Cn1ccc2c(-c3ccnc(Nc4cccc(Cl)c4)n3)cccc21)NCC1CCCN1` (stereo not drawn) [Compound 22, 2-{4-[2-(3-Chloro-phenylamino)-pyrimidin-4-yl]-indol-1-yl}-N-pyrrolidin-2-ylmethyl-acetamide], for which the IC50 in test [1] was below 5 µM; in test [2] it was below 5 µM; in test [3], 5 to 15 µM.

On to `CC(C)(C)NC(=O)Cn1ccc2c(-c3ccnc(Nc4cccc(Cl)c4)n3)cccc21` [Compound 15, N-tert-Butyl-2-{4-[2-(3-chloro-phenylamino)-pyrimidin-4-yl]-indol-1-yl}-acetamide], for which the IC50 in test [1], in test [2] and in test [3] was below 5 µM in each case.

In the case of `NCCNC(=O)Cn1ccc2c(-c3ccnc(Nc4cccc(Cl)c4)n3)cccc21` [Compound 19, N-(2-Amino-ethyl)-2-{4-[2-(3-chloro-phenylamino)-pyrimidin-4-yl]-indol-1-yl}-acetamide], the results for the IC50 in test [1], in test [2] and in test [3] were above 50 µM, below 5 µM and 5 to 15 µM, respectively.

With `O=C(Cn1ccc2c(-c3ccnc(Nc4cccc(Cl)c4)n3)cccc21)NCc1ccccc1` [Compound 17, N-Benzyl-2-{4-[2-(3-chloro-phenylamino)-pyrimidin-4-yl]-indol-1-yl}-acetamide], the IC50 in test [1], in test [2] and in test [3] was above 50 µM throughout.

As to `COc1cnc(Nc2cccc(S(N)(=O)=O)c2)nc1-c1cccc2[nH]ccc12` [Compound 33, 3-[4-(1H-Indol-4-yl)-5-methoxy-pyrimidin-2-ylamino]-benzenesulfonamide], the IC50 in test [1], in test [2] and in test [3] was below 5 µM in each case.

`CN(C)C(=O)Cn1ccc2c(-c3ccnc(Nc4cccc(Cl)c4)n3)cccc21` [Compound 14, 2-{4-[2-(3-Chloro-phenylamino)-pyrimidin-4-yl]-indol-1-yl}-N,N-dimethyl-acetamide]: the IC50 is below 5 µM in test [1], below 5 µM in test [2] and 5 to 15 µM in test [3].

With `CNC(=O)Cn1ccc2c(-c3ccnc(Nc4cccc(Cl)c4)n3)cccc21` [Compound 12, 2-{4-[2-(3-Chloro-phenylamino)-pyrimidin-4-yl]-indol-1-yl}-N-methyl-acetamide], the IC50 in test [1], in test [2] and in test [3] was below 5 µM each time.

Turning to `Cn1ccc2c(-c3ccnc(Nc4cccc(Cl)c4)n3)cccc21` [Compound 3, (3-Chloro-phenyl)-[4-(1-methyl-1H-indol-4-yl)-pyrimidin-2-yl]-amine], the IC50 was below 5 µM in test [1], below 5 µM in test [2] and 5 to 15 µM in test [3].

With `CN(C)CCCn1ccc2c(-c3ccnc(Nc4cccc(Cl)c4)n3)cccc21` [Compound 11, (3-Chloro-phenyl)-{4-[1-(3-dimethylamino-propyl)-1H-indol-4-yl]-pyrimidin-2-yl}-amine], the IC50 in test [1] is below 5 µM; in test [2], below 5 µM; in test [3], 5 to 15 µM.

For `CCn1ccc2c(-c3ccnc(Nc4cccc(Cl)c4)n3)cccc21` [Compound 4, (3-Chloro-phenyl)-[4-(1-ethyl-1H-indol-4-yl)-pyrimidin-2-yl]-amine], the IC50 in test [1] is 5 to 15 µM; in test [2], below 5 µM; in test [3] it was below 5 µM.

On to `NS(=O)(=O)c1cccc(Nc2ncc(F)c(-c3cccc4[nH]ccc34)n2)c1` [Compound 34, 3-[5-Fluoro-4-(1H-indol-4-yl)-pyrimidin-2-ylamino]-benzenesulfonamide], for which the IC50 in test [1], in test [2] and in test [3] was below 5 µM each time.
